system: HCT116 cells; assay: Mitotic arrest assay on HCT116 cells (phospho-histone H3 Ser10); assay type: cell-based, human; conditions: Homo sapiens, HCT-116, HCT116 cells; lowest active dose; read-out: Mitotic arrest HCT116 LAD (converted)
Outline: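 Read-out is imaging of phospho-histone H3 Ser10 (Alexa Fluor 488) with Hoechst nuclear counting, after 6 h compound exposure at 37 °C, DMSO ≤0.1%. LAD is the lowest dose at which the blank-corrected value over SD exceeds 5; triplicates, low-count wells excluded.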

Row | SMILES | minimal effective concentration
1 | CCc1cc2ccc(C(C)(C#N)Cc3cc(OCCOC)nc(Cl)n3)cc2[nH]c1=O (stereo not shown) [Compound 367] | 1 µM
2 | CCc1cc2ccc(C(C)(C#N)Cc3nc(C)cc(C)n3)cc2[nH]c1=O (stereo not shown) [Compound 368] | 1 µM
3 | CCc1cc2ccc(C(C)(C#N)Cc3nccc(OCCOC)n3)cc2[nH]c1=O (stereo not shown) [Compound 369] | 1 µM
4 | CCc1cc2ccc(C(C)(C#N)Cc3nc(Cl)cc(OCCOC)n3)cc2[nH]c1=O (stereo not shown) [Compound 370] | 1 µM
5 | CCc1cc2ccc(C(C)(C#N)Cc3cc(Cl)nc(Cl)c3)cc2[nH]c1=O (stereo not shown) [Compound 372] | 0.1 µM
6 | CCc1cc2ccc(C(C)(C#N)Cc3cc(OC)ccn3)cc2[nH]c1=O (stereo not shown) [Compound 373] | 1 µM
7 | CCc1cc2ccc(C(C)(C#N)CC3CCc4ccccc4O3)cc2[nH]c1=O (stereo not shown) [Compound 399] | 0.3 µM
